Data as given in US10537541B2, “Treatment of focal segmental glomerular sclerosis (FSGS) using therapeutically effective oral doses of 10-nitro-9(E)-octadec-9-enoic acid” (Complexa, Inc., priority 2015, dated 2020).

Key:
[1] = test system: deoxycorticosterone acetate (DOCA)/salt-induced model of FSGS; test: DOCA salt study: RT-PCR analysis of kidney gene expression; type: in vivo, mice (129/sv strain); details: DOCA/salt mice kidney
Method: (§1) Induction of model: Male mice (129/sv strain) were purchased from Taconic Labs. The animals were uninephrectomized (Unx) at 6 weeks of age by the vendor and shipped one week after surgery. At 2 weeks post Unx, a DOCA or placebo pellet (21-day release pellets, 50 mg/pellet, Innovative Research of America, Sarasota, Fla.) was implanted s.c. All mice were then placed on a semisynthetic diet which contained a moderate fat content and a low phytoestrogen/anti-oxidant level, which approximates a normal human diet (4). A second DOCA or placebo pellet was implanted three weeks later.
(§2) Treatment: Mice were treated with placebo, 10-nitro-9(E)-octadec-9-enoic acid at a dose of 2.5 and 12.5 mg/kg, or enalapril (standard of care) for 4 weeks by oral gavage starting 2 weeks after the first DOCA implantation. One percent NaCl in tap water was given to each group except the sham control group. Body weight was measured weekly, and doses were readjusted based on the current body weight. Urine and blood samples were collected prior to treatment and at week 2 and 4 of treatment. Mice were terminated at week 4. Data is presented as the mean+SEM for the number of animals listed in each group.
RT-PCR Analysis of Gene Expression: A slice of kidney from each mouse was placed in Trizol solution (Invitrogen) immediately after harvesting and stored at −80° C. until analysis. Tissues were homogenized using a bead mill in 0.5 ml of Trizol solution and total RNA was extracted with chloroform (Sigma) and purified using standard RNeasy mini kit (Qiagen), with on column DNase 1 (Qiagen) digestion to avoid non-specific fluorescence emission derived from the recognition of contaminating genomic DNA by the probe, according to manufacturer's recommendation. RNA samples were eluted in 30 μl of nuclease-free water and quantified using a Nanodrop. cDNA was generated from 2 μg of RNA by using Clontech Sprint PowerScript reagents according to manufacturer's protocol. Fluorogenic probes specific for genes assayed in the report were purchased from Applied Biosystems. PCR amplification and analysis of PCR reaction were performed and monitored using an ABI Prism 7900HT Sequence Detection System (TaqMan, Perkin-Elmer Applied Biosystem). Data analysis was carried out by using the Sequence Detection Systems v2.3 program (Applied Biosystems). For each cDNA sample the Ct value of each target sequence was normalized to reference gene (Ribosomal RNA-18S), and shown as fold changes to control group. Statistical analyses for gene expression data was performed using a two-tailed Student's t-test.

[2] = test system: deoxycorticosterone acetate (DOCA)/salt-induced model of FSGS; test: DOCA salt study: serum and urine analyses; type: in vivo, mice (129/sv strain); details: DOCA/salt mice, enalapril 20 mg/kg/d in drinking water
Method: Induction of model: Male mice (129/sv strain) were purchased from Taconic Labs. The animals were uninephrectomized (Unx) at 6 weeks of age by the vendor and shipped one week after surgery. At 2 weeks post Unx, a DOCA or placebo pellet (21-day release pellets, 50 mg/pellet, Innovative Research of America, Sarasota, Fla.) was implanted s.c. All mice were then placed on a semisynthetic diet which contained a moderate fat content and a low phytoestrogen/anti-oxidant level, which approximates a normal human diet (4). A second DOCA or placebo pellet was implanted three weeks later. […] One percent NaCl in tap water was given to each group except the sham control group. Body weight was measured weekly, and doses were readjusted based on the current body weight. Urine and blood samples were collected prior to treatment and at week 2 and 4 of treatment. Mice were terminated at week 4. Data is presented as the mean+SEM for the number of animals listed in each group. Serum and urine analyses: Blood samples were collected from the retro-orbital sinus and samples were separated to serum. Serum and urine creatinine (enzymatic assay), blood urea nitrogen (BUN), and serum cholesterol were measured using a Cobas 400 plus bioanalyzer (Roche Diagnostics, IN). Urine samples were collected for 24 h using metabolic cages. Urine albumin was measured by immunoassay Albuwell M (Exocell Inc., Philadelphia, Pa.). Immuno-ELISA according to manufacturer's instructions was used to measure urine nephrin (Exocell Inc., Philadelphia, Pa.) and MCP-1 (Thermal Scientific, Waltham, Mass.). Kim-1 was measured using the E-90KIM Mouse ELISA Kit (Immunology Consultants Laboratory, Portland, Oreg.). Statistical analyses for serum and urine data was performed using a two-tailed Student's t-test.

[3] = test system: deoxycorticosterone acetate (DOCA)/salt-induced model of FSGS; test: DOCA salt study: urinary isoprostane and tetranor-PGDM by LC-MS; type: in vivo, mice (129/sv strain); details: DOCA/salt mice; end time point
Method: as §1, §2
Isoprostanes are a unique series of prostaglandin-like compounds formed in vivo via a non-enzymatic mechanism involving the free radical-initiated peroxidation of arachidonic acid. It has been shown that 8-iso-PGF2a (15-F2t-isoprostane) is the isoprostane that correlates best with increasing oxidative stress. Therefore, to assess the effect of treatment on oxidative stress, this isoform was measured using LC-MS. Also measured was tetranor-PGDM, a urinary metabolite of prostaglandin D2. […] On the other hand, elevated tetranor-PGDM was lowered with treatment of 10-nitro-9(E)-octadec-9-enoic acid and enalapril at the end time point (FIG. 18).

[4] = test system: deoxycorticosterone acetate (DOCA)/salt-induced model of FSGS; test: DOCA salt study: histological assessment of kidney; type: in vivo, mice (129/sv strain); details: DOCA/salt mice; enalapril 20 mg/kg/d in drinking water, 4 weeks
Method: as §1, §2
Histological Assessment: Formalin fixed, paraffin embedded kidneys were sectioned at 3 microns and stained with hematoxylin and eosin (H&E), periodic acid-Schiff (PAS) and Masson's Trichrome for histological analysis. Slides were blindly evaluated by an experienced pathology investigator. Glomerular and tubular pathology, interstitial inflammation and interstitial fibrosis were semi-quantitatively scored on a scale of 0-4 as follows: 0=normal; 1=mild; 2=moderate; 3=marked; 4=severe.
Glomerular hypertrophy was evaluated by measuring glomerular area and expressed as a mean value of 50 glomeruli per kidney. Glomerular hypertrophy is an important marker for diabetic and hypertensive-mediated chronic kidney disease. […] This finding is consistent with unchanged gene expression profile for podocyte markers (Table 2), and seems reasonable given that the disease was relatively modest.

[5] = test system: deoxycorticosterone acetate (DOCA)/salt-induced model of FSGS; test: DOCA salt study: glomerular filtration rate (inulin); type: in vivo, mice (129/sv strain); details: DOCA/salt mice; enalapril 20 mg/kg/d in drinking water, 4 week timepoint
Method: Induction of model: Male mice (129/sv strain) were purchased from Taconic Labs. The animals were uninephrectomized (Unx) at 6 weeks of age by the vendor and shipped one week after surgery. At 2 weeks post Unx, a DOCA or placebo pellet (21-day release pellets, 50 mg/pellet, Innovative Research of America, Sarasota, Fla.) was implanted s.c. All mice were then placed on a semisynthetic diet which contained a moderate fat content and a low phytoestrogen/anti-oxidant level, which approximates a normal human diet (4). A second DOCA or placebo pellet was implanted three weeks later. […] One percent NaCl in tap water was given to each group except the sham control group. Body weight was measured weekly, and doses were readjusted based on the current body weight. Urine and blood samples were collected prior to treatment and at week 2 and 4 of treatment. Mice were terminated at week 4. Data is presented as the mean+SEM for the number of animals listed in each group. Glomerular Filtration Rate: Glomerular filtration rate (GFR) was performed at the 4 week timepoint using a FIT-GFR test kit for inulin according to manufacturer's instructions (BioPal, Worcester, Mass.). […] Serum was isolated and quantified by an inulin ELISA. Inulin serum clearance was determined by nonlinear regression using a one phase exponential decay formula according to manufacturer's instructions.

[6] = test system: deoxycorticosterone acetate (DOCA)/salt-induced model of FSGS; test: DOCA/salt-induced mouse model of FSGS: renoprotection, body weight, blood pressure, organ/body weight ratios; type: in vivo, mice (129/sv strain); details: DOCA/salt mice, 4 weeks
Method: 10-nitro-9(E)-octadec-9-enoic acid, given orally after onset of renal injury, was evaluated for efficacy in a model for Focal Segmental Glomerular Sclerosis (FSGS) in humans. […] Mice were uni-nephrectomized and, after two weeks, implanted subcutaneously with DOCA (50 mg, 21-day release) or placebo sustained release pellets, with pellet replacement 3 weeks later. All groups, except the sham control group, also received 1% NaCl in tap water. 10-nitro-9(E)-octadec-9-enoic acid (daily oral gavage, 2.5 or 12.5 mg/kg) or enalapril (20 mg/kg/day in drinking water) treatments began 2 weeks after the first DOCA implantation and continued for 4 weeks. Enalapril was included for comparison because it is used as standard of care for FSGS and this is a positive control for the model.
as §1, §2

[7] = Pharmacokinetic interaction study with pravastatin and Vytorin in healthy males: PK; details: Vytorin 10 mg/20 mg, Day 12 with 10-nitro-9(E)-octadec-9-enoic acid 150 mg daily versus Day 2 alone
healthy male subjects = test: Pharmacokinetic interaction study in healthy males: safety and tolerability; type: in vivo, human; details: pravastatin 40 mg, 10 healthy males
Method: Safety and tolerability was evaluated throughout the study. The timing of discharge was determined by the Investigator or designee based on safety and tolerability assessment. On dosing days, subjects remained in the research unit for a minimum of 1 h after dosing prior to discharge. On Day 4, on the first day of 10-nitro-9(E)-octadec-9-enoic acid dosing, subjects remained in the unit for 4 to 6 h after dosing prior to discharge to assess safety and tolerability.
Safety and PK assessments were evaluated throughout the study. During the in-house portion of the study, urine was collected over the 24-h period on Day 2 and Day 12.
Safety was evaluated by physical examinations; adverse events (AEs); vital signs (blood pressure, heart rate, respiratory rate); clinical laboratory values (hematology, biochemistry, and urinalysis), specifically, serum Mg and CPK and electrocardiograms (ECGs).
Triplicate ECGs were obtained just prior to the start of dosing on Day 1 and single ECGs were obtained at all other time points. The average of the 3 ECG interval measurements at the pre-dose time point was considered as baseline. All 12-Lead ECGs were obtained after the subject has rested in a fully supine position for at least 10 minutes. There were no clinically significant abnormalities reported on any electrocardiogram (ECG) parameter. There were no QT/QTcF interval prolongations observed during the study.

[8] = enalapril 20 mg/kg/d, normalized to 18S, fold changes to control group, mean ± SEM

CCOC(=O)[C@H](CCc1ccccc1)N[C@@H](C)C(=O)N1CCC[C@H]1C(=O)O [Enalapril, reference compound]
gene expression of MCP-1, osteopontin, collagen III, fibronectin and PAI-1 (mRNA, qRT-PCR) ([1]; enalapril 20 mg/kg/d in drinking water, 4 weeks): neither the high dose 10-nitro-9(E)-octadec-9-enoic acid nor enalapril had an effect
Nephrin gene expression [1, 8]: 1.091 ± 0.14
Podocin gene expression [1, 8]: 0.9991 ± 0.095
Kim-1 in urine, relative to the DOCA group [2]: trended to be decreased
albumin excretion ([2]; 4 weeks): markedly reduced
plasma cholesterol ([2]; 4 weeks): reduced
urinary nephrin levels ([2]; 4 weeks): markedly reduced
urinary tetranor-PGDM [3]: lowered
glomerular hypertrophy (glomerular area, mean of 50 glomeruli per kidney) [4]: did not have an effect
glomerulosclerosis: average scores and percent of glomerular damage (sclerosis) [4]: not significantly reduced
GFR (inulin method) [5]: trend toward an increase
blood pressure (mean arterial) ([6]; all treatments): none of the treatments, including enalapril, had a significant effect
kidney/body weight and heart/body ratios ([6]; enalapril 20 mg/kg/d in drinking water): no effect

O=C1[C@H](CC[C@H](O)c2ccc(F)cc2)[C@@H](c2ccc(O)cc2)N1c1ccc(F)cc1 [ezetimibe]
decrease of mean AUC(0-t) on co-administration [7]: 5%
decrease of mean Cmax on co-administration [7]: 20%

CC[C@H](C)C(=O)O[C@H]1C[C@H](O)C=C2C=C[C@H](C)[C@H](CC[C@@H](O)C[C@@H](O)CC(=O)O)[C@H]21 [pravastatin, reference compound]
subjects with abdominal discomfort after administration (healthy male subjects): 1 subject

CCC(C)(C)C(=O)O[C@H]1C[C@@H](C)C=C2C=C[C@H](C)[C@H](CC[C@@H]3C[C@@H](O)CC(=O)O3)[C@H]21 [simvastatin]
increase of mean AUC(0-t) on co-administration [7]: 25%
increase of mean Cmax on co-administration [7]: 10%
